Measurements reported in US20230310432A1 (JULIUS-MAXIMILIANS-UNIVERSITÄT WÜRZBURG, priority 2017, published 2023).

Tests used:
[1] = tested on: CD8+ T cells expressing a CD19 CAR with 4-1BB costimulation; experiment: Bioluminescence-based cytotoxicity assay, K562/CD19 target cells; type: cell-based, human; details: dasatinib 100 nM added 1 hour after the start of the co-culture; t=10 hours; >90% without dasatinib
[2] = tested on: CD8+ T cells expressing a CD19 CAR with CD28 costimulatory domain; experiment: CFSE proliferation assay, co-culture with K562/CD19; type: cell-based, human; details: dasatinib ≥50 nM; 72 h
Method: Proliferation: T cells were labeled with 0.2 μM carboxyfluorescein succinimidyl ester (CFSE, Invitrogen), washed and plated in duplicate or triplicate wells with irradiated (80 Gy) stimulator cells at an E:T ratio of 4:1 (K562/ROR1, K562/CD19 or RCH-ACV). No exogenous cytokines were added to the culture medium. After a 72-hour incubation, cells were labeled with anti-CD3 mAb, and analyzed by flow cytometry to assess cell division of T cells.
CAR-T cells were labeled with CFSE and co-cultured with K562 that the inventors had transduced with either CD19 (for testing CD19 CAR-T cells) or ROR1 (for testing ROR1 CAR-T cells). Dasatinib was added to the assay medium at the beginning of the co-culture assay. Flow cytometric analyses were performed to determine the proliferation of T cells at the end of the co-culture assay.

[3] = tested on: CD4+ T cells expressing a CD19 CAR with CD28 costimulatory domain; experiment: Multiplex cytokine analysis, co-culture with K562/CD19; type: cell-based, human; details: dasatinib ≥25 nM; 20 h; compared to non-dasatinib treated CAR-T cells
Method: A multiplex cytokine analysis was performed in supernatant removed from the co-culture.

[4] = tested on: NFAT/GFP reporter in CD8+ CD19 CAR/4-1BB T cells; experiment: NFAT/GFP reporter assay during sequential stimulation; type: cell-based, human; details: day 1
[5] = tested on: CD19 CAR/4-1BB-T cells; Raji tumor cells; experiment: Flow cytometry of tumor cells and human CAR-T cells in bone marrow and spleen, intermittent dasatinib; type: in vivo, NSG mice; details: day 15
Method: (§1) The Institutional Animal Care and Use Committee of UKW approved all mouse experiments. NOD.Cg-Prkdc^scidIl2rg^tm1wjl/SzJ (NSG) mice (female, 6-8 week old) were purchased from Charles River (Sulzfeld, Germany). Mice were inoculated with 1×10^6 Raji/ffluc_GFP tumor cells via tail vein injection (i.v.). Mice were treated with 5×10^6 CAR-modified or control untransduced T-cells (CD4:CD8 ratio=1:1) via tail vein injection (i.v.). […] Tumor burden and distribution was analyzed by serial bioluminescence imaging on an IVIS Lumina imager (Perkin Elmer, Baesweiler, Germany): mice received i.p. injections of 0.3 mg/g luciferin and images were acquired 10 minutes after luciferin injection in small binning mode at an acquisition time of 1 s to 1 min to obtain unsaturated images. Data were analyzed using LivingImage Software (Caliper) and the average radiance (or photon flux) analyzed in regions of interest that encompassed the entire body of each individual mouse. Mice were sacrificed at the end of the experiment and human T cells in bone marrow, peripheral blood and spleen were analyzed by flow cytometry. The presence of (human) cytokines in serum was measured using multiplex cytokine analysis.
In brief, cohorts of 1-12 mice were inoculated with 1×10^6 firefly-luciferase_GFP-transduced Raji tumor cells on day 0. […] Serial bioluminescence imaging was performed to determine tumor burden on day 7, 9 and 15.
On day 15, mice were sacrificed and peripheral blood (PB), bone marrow (BM) and spleen (SP) analyzed for the presence of human CAR-T cells by flow cytometry.

CD19 CAR/4-1BB-T cells = experiment: Frequency of human T cells in bone marrow and peripheral blood by flow cytometry (Example 6); type: in vivo, NSG mice; details: CAR/treated
Method: as §1
In brief, cohorts of n≥3 mice were inoculated with 1×10^6 firefly-luciferase_GFP-transduced Raji tumor cells on day 0, and on day 7 mice were treated with either CAR-transduced or control untransduced T cells. T-cell products consisted of equal proportions of CD4^+ and CD8^+ T cells (1:1 ratio), the total dose was 5×10^6 T cells.
The inventors analyzed the presence of human T cells in bone marrow (BM), spleen (SP) and peripheral blood (PB) of mice, at d1 and d3 after T cell injection using flow cytometry. Live human T cells were identified as 7AAD^−, […] and CD4^+.

[6] = tested on: CD19 CAR/4-1BB-T cells; Raji tumor cells; experiment: Tumor burden by bioluminescence imaging, intermittent dasatinib (Example 11); type: in vivo, NSG mice; details: day 8; CAR-T cells and intermittent dasatinib 5 mg/kg; 1.9e10 without dasatinib
Method: as §1
In brief, cohorts of 1-12 mice were inoculated with 1×10^6 firefly-luciferase_GFP-transduced Raji tumor cells on day 0. […]

[7] = tested on: CD8+ T cells expressing a CD19 CAR with CD28 costimulatory domain; experiment: Bioluminescence-based cytotoxicity assay, K562/CD19 target cells; type: cell-based, human
[8] = tested on: CD8+ T cells expressing a CD19 CAR with 4-1BB costimulation; experiment: CFSE proliferation assay, co-culture with K562/CD19; type: cell-based, human; details: 72 h
[9] = tested on: NFAT-inducible GFP reporter gene in CD8+ CD19 CAR/4-1BB T cells; experiment: NFAT-inducible GFP reporter assay; type: cell-based, human; details: 100 nM dasatinib; stimulation with Raji, 24 h; 1211 without dasatinib, 117 unstimulated
Method: T cells (co-)expressing the NFAT inducible GFPwt reporter gene were co-cultured in the presence of 10 U IL-2 with irradiated (80 Gy) Raji or K562 tumor cells at an E:T ratio of 5:1 or without target cells. […] After 24 hours of co-culture, cells were labeled with anti-CD3 mAb, and analyzed by flow cytometry to assess GFP expression in T cells.
The inventors prepared CD8^+ CD19 CAR/4-1BB T cells, that the inventors transduced to co-express an NFAT-inducible GFP reporter gene.

Cc1nc(Nc2ncc(C(=O)Nc3c(C)cccc3Cl)s2)cc(N2CCN(CCO)CC2)n1 [dasatinib]
specific lysis [1]: 34% | residual proliferation compared to non-dasatinib treated CAR-T cells [2]: less than 7% | reduction of production and secretion of GM-CSF, IFN-γ, IL-2, IL-4, IL-5, IL-6, IL-8 [3]: > 95% | GFP MFI ([4]; dasatinib added one hour after assay set up, 1949 in untreated stimulated CAR-T cells): 734 | GFP MFI ([4]; dasatinib present from the beginning): 137 | percentage of human CAR-T cells, bone marrow ([5]; intermittent dasatinib, 1.9% without): 7.3% | percentage of human CAR-T cells, spleen ([5]; intermittent dasatinib, 3.2% without): 6.9% | remaining tumor burden, of all living cells in the bone marrow ([5]; one exemplary mouse, CAR-T cells and intermittent dasatinib, 58.8% CAR-T cells only): 0.22% | frequency of human T cells, bone marrow (CD19 CAR/4-1BB-T cells; day 1, 0.099% CAR/untreated): 0.087% | frequency of human T cells, peripheral blood (CD19 CAR/4-1BB-T cells; day 1, […] CAR/untreated): 0.19% | frequency of CAR-T cells, bone marrow (CD19 CAR/4-1BB-T cells; day +3, 0.56% CAR/untreated): 0.23% | frequency of CAR-T cells, peripheral blood (CD19 CAR/4-1BB-T cells; day +3, 0.61% CAR/untreated): 0.36% | average bioluminescence signal [6]: 5.6e9 p/s/cm*2/sr | specific lysis of target cells ([7]; dasatinib 50 nM, t=5 h, 52% by non-dasatinib treated): less than 23% | residual specific lysis of target cells ([7]; dasatinib 50 nM, t=10 h, 91% by non-dasatinib treated): 47% | specific lysis of target cells ([7]; dasatinib 100 nM, any given time point, 91% by non-dasatinib treated at t=10 h): less than 10% | remaining proliferation ([8]; 0.1 μM dasatinib): < 5.6% | residual proliferation compared to non-dasatinib treated CAR-T cells ([8]; dasatinib ≥3.125 nM): less than 80% | residual proliferation compared to non-dasatinib treated CAR-T cells ([8]; dasatinib ≥12.5 nM): less than 45% | residual proliferation compared to non-dasatinib treated CAR-T cells ([8]; dasatinib ≥50 nM): less than 8% | mean fluorescence intensity (MFI) of GFP expression [9]: 129
